Publication PMC7501296, “Rapid and direct control of target protein levels with VHL-recruiting dTAG molecules” (Nature Communications, 2020)
Values joined by “and” are separate entries in the source; they are usually repeats but may differ in a detail not shown here. Identical values can stand only once.

Experiments:
Type in all cases: cell-based
FKBP12^WT-Nluc = target: T1, FKBP12^WT-Nluc (Homo sapiens, UniProt P62942); assay: FKBP12WT-Nluc dual luciferase assay (293FT); conditions: 293FT FKBP12WT-Nluc, 24 h
T1 construct: expressed in transfected cells; host or cells: 293FT
T1 sequence (P62942 2-108 limits assumed): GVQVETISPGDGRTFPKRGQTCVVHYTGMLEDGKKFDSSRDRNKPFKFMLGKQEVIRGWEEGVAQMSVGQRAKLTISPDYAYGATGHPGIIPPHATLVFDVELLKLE
Experimental: (§1) Dual luciferase assays were performed using 293FT FKBP12^WT-Nluc and FKBP12^F36V-Nluc cells. In brief, cells were plated at 2000 cells per well in 20 µL of appropriate media in 384-well white culture plates (Corning), allowed to adhere overnight, and 100 nL of compounds were added using a Janus Workstation pin tool (PerkinElmer) for 24 h at 37 °C. To evaluate Fluc signal, plates were brought to room temperature, 20 µL of Dual-Glo Reagent (Promega) was added for 10 min and luminescence was measured on an Envision 2104 plate reader (PerkinElmer). Subsequently, 20 µL of Dual-Glo Stop & Glo Reagent (Promega) was added for 10 min and luminescence was again measured to capture Nluc signal. DMSO-normalized ratios of Nluc/Fluc signal was analyzed and plotted using GraphPad PRISM v8[6].

[1] = test system: PATU-8902 FKBP12^F36V-KRAS^G12V; KRAS^-/- clone; assay: Antiproliferation, PATU-8902 FKBP12F36V-KRASG12V; KRAS-/- clone, 3D-spheroid (CellTiter-Glo); conditions: FKBP12F36V-KRASG12V, KRAS-/-, 3D-spheroid, replicate values
Experimental: (§2) Cell viability was assayed in 2D-adherent or ultra-low adherent 3D-spheroids using CellTiter-Glo (Promega)[6],[15]. Luminescence was measured on an Envision 2104 plate reader (PerkinElmer) and Fluostar Omega Reader (BMG Labtech) and data was analyzed using GraphPad PRISM v8. Synergy assessments were performed using CellTiter-Glo (Promega) with the following modifications to the protocol described in the ref. [34]. In brief, EWS502 cells were plated at 1000 cells per well in 50 µL of appropriate media in 384-well white culture plates (Corning) allowed to adhere overnight, and 100 nL of compounds were added using a Janus Workstation pin tool (PerkinElmer) for 72 h. Cell viability was measured by addition of 10 µL of CellTiter-glo (Promega), followed by incubation for 15 minutes at room temperature. Luminescence was measured on an Envision 2104 plate reader (PerkinElmer) and data was analyzed using GraphPad PRISM v8.

FKBP12^F36V-Nluc = target: T2, FKBP12^F36V-Nluc (Homo sapiens, UniProt P62942, F37V); assay: FKBP12F36V-Nluc dual luciferase assay (293FT); conditions: 293FT FKBP12F36V-Nluc, 24 h
T2 construct: expressed in transfected cells; host or cells: 293FT
T2 sequence (P62942 2-108 F37V limits assumed): as the sequence (P62942 2-108 limits assumed) above, with F36V counted along it
Experimental: as §1

[2] = test system: PATU-8902 FKBP12^F36V-KRAS^G12V; KRAS^-/- clone; assay: Antiproliferation, PATU-8902 FKBP12F36V-KRASG12V; KRAS-/- clone, 2D-monolayer (CellTiter-Glo)
Experimental: as §2

[3] = test system: PATU-8902 LACZ-FKBP12^F36V clone; assay: Antiproliferation, PATU-8902 LACZ-FKBP12F36V clone, 3D-spheroid (CellTiter-Glo)
Experimental: as §2

[4] = test system: PATU-8902 LACZ-FKBP12^F36V clone; assay: Antiproliferation, PATU-8902 LACZ-FKBP12F36V clone, 2D-monolayer (CellTiter-Glo)
Experimental: as §2

[5] = log10[compound] (M) -5.30103, single replicates
[6] = log10[compound] (M) -5.80103, single replicates
[7] = log10[compound] (M) -6.30103, single replicates
[8] = log10[compound] (M) -6.80103, single replicates
[9] = log10[compound] (M) -7.30103, single replicates
[10] = log10[compound] (M) -7.80103, single replicates
[11] = log10[compound] (M) -8.30103, single replicates
[12] = log10[compound] (M) -8.80103, single replicates
[13] = log10[compound] (M) -9.30103, single replicates
[14] = log10[compound] (M) -9.80103, single replicates
[15] = log10[compound] (M) -5.69897, replicate values
[16] = log10[compound] (M) -6.19897, replicate values
[17] = log10[compound] (M) -6.69897, replicate values
[18] = log10[compound] (M) -7.19897, replicate values
[19] = log10[compound] (M) -7.69897, replicate values
[20] = log10[compound] (M) -8.19897, replicate values
[21] = log10[compound] (M) -8.69897, replicate values
[22] = log10[compound] (M) -9.19897, replicate values
[23] = log10[compound] (M) -9.69897, replicate values
[24] = log10[compound] (M) -10.199, replicate values

CC[C@H](C(=O)N1CCCC[C@H]1C(=O)O[C@H](CCc1ccc(OC)c(OC)c1)c1ccccc1OCC(=O)NCCCCCCOc1cccc2c1C(=O)N(C1CCC(=O)N(C)C1=O)C2=O)c1cc(OC)c(OC)c(OC)c1 (stereo partly drawn) [dTAG-13-NEG]
DMSO-normalized ratio of Nluc/Fluc signal (FKBP12^WT-Nluc; [5]): 67.0666 and 77.8998 and 91.6821 and 102.898 | DMSO-normalized ratio of Nluc/Fluc signal (FKBP12^WT-Nluc; [6]): 78.9348 and 111.471 and 83.3725 and 82.7897 | DMSO-normalized ratio of Nluc/Fluc signal (FKBP12^WT-Nluc; [7]): 92.3022 and 94.9354 and 69.2394 and 97.8278 | DMSO-normalized ratio of Nluc/Fluc signal (FKBP12^WT-Nluc; [8]): 96.006 and 100.644 and 74.9876 and 76.7216 | DMSO-normalized ratio of Nluc/Fluc signal (FKBP12^WT-Nluc; [9]): 72.8244 and 95.6646 and 99.6579 and 99.4332 | DMSO-normalized ratio of Nluc/Fluc signal (FKBP12^WT-Nluc; [10]): 97.6563 and 103.416 and 111.647 and 107.58 | DMSO-normalized ratio of Nluc/Fluc signal (FKBP12^WT-Nluc; [11]): 72.1292 and 95.3278 and 119.638 and 97.0458 | DMSO-normalized ratio of Nluc/Fluc signal (FKBP12^WT-Nluc; [12]): 78.9909 and 117.088 and 62.8565 and 76.9455 | DMSO-normalized ratio of Nluc/Fluc signal (FKBP12^WT-Nluc; [13]): 119.218 and 128.013 and 101.879 and 100.194 | DMSO-normalized ratio of Nluc/Fluc signal (FKBP12^WT-Nluc; [14]): 65.6358 and 99.3457 and 89.3391 and 80.9056 | DMSO-normalized antiproliferation ([1]; log10[compound] (M) -5.69897): 96.8823 and 98.3914 and 98.1687 and 89.6654 | DMSO-normalized antiproliferation ([1]; log10[compound] (M) -6.19897): 105.48 and 122.576 and 96.899 and 128.406 | DMSO-normalized antiproliferation ([1]; log10[compound] (M) -6.69897): 114.368 and 120.61 and 116.857 and 110.62 | DMSO-normalized antiproliferation ([1]; log10[compound] (M) -7.19897): 96.9046 and 91.4307 and 93.53 and 114.106 | DMSO-normalized antiproliferation ([1]; log10[compound] (M) -7.69897): 103.386 and 104.261 and 89.7267 and 101.721 | DMSO-normalized antiproliferation ([1]; log10[compound] (M) -8.19897): 101.449 and 95.4289 and 118.555 and 115.899 | DMSO-normalized antiproliferation ([1]; log10[compound] (M) -8.69897): 120.176 and 108.237 and 116.378 and 119.908 | DMSO-normalized antiproliferation ([1]; log10[compound] (M) -9.19897): 94.538 and 95.4846 and 105.848 and 104.818 | DMSO-normalized antiproliferation ([1]; log10[compound] (M) -9.69897): 83.4954 and 97.4225 and 109.1 and 101.059 | DMSO-normalized antiproliferation ([1]; log10[compound] (M) -10.199): 96.7821 and 78.8679 and 98.5696 and 88.8079 | DMSO-normalized ratio of Nluc/Fluc signal (FKBP12^F36V-Nluc; [5]): 107.485 and 132.51 and 146.194 and 142.752 | DMSO-normalized ratio of Nluc/Fluc signal (FKBP12^F36V-Nluc; [6]): 129.127 and 105.072 and 162.6 and 136.425 | DMSO-normalized ratio of Nluc/Fluc signal (FKBP12^F36V-Nluc; [7]): 79.0888 and 120.578 and 92.5034 and 88.448 | DMSO-normalized ratio of Nluc/Fluc signal (FKBP12^F36V-Nluc; [8]): 88.2422 and 88.8583 and 65.8176 and 62.4888 | DMSO-normalized ratio of Nluc/Fluc signal (FKBP12^F36V-Nluc; [9]): 134.755 and 99.5368 and 72.6182 and 68.5345 | DMSO-normalized ratio of Nluc/Fluc signal (FKBP12^F36V-Nluc; [10]): 97.7941 and 97.6227 and 54.6259 and 65.8847 | DMSO-normalized ratio of Nluc/Fluc signal (FKBP12^F36V-Nluc; [11]): 87.9478 and 99.3529 and 98.1344 and 118.766 | DMSO-normalized ratio of Nluc/Fluc signal (FKBP12^F36V-Nluc; [12]): 97.4127 and 84.7262 and 88.2477 and 92.5526 | DMSO-normalized ratio of Nluc/Fluc signal (FKBP12^F36V-Nluc; [13]): 102.465 and 92.5515 and 101.177 and 79.93 | DMSO-normalized ratio of Nluc/Fluc signal (FKBP12^F36V-Nluc; [14]): 77.6015 and 76.7835 and 70.5544 and 62.7116 | DMSO-normalized antiproliferation [2, 15]: 50.9912 and 75.2013 and 73.3197 and 81.1372 | DMSO-normalized antiproliferation [2, 16]: 68.0095 and 98.7671 and 119.504 and 100.111 | DMSO-normalized antiproliferation [2, 17]: 129.938 and 93.0967 and 131.778 and 96.6262 | DMSO-normalized antiproliferation [2, 18]: 111.6 and 154.459 and 120.786 and 146.95 | DMSO-normalized antiproliferation [2, 19]: 99.1211 and 134.569 and 105.935 and 133.398 | DMSO-normalized antiproliferation [2, 20]: 121.063 and 109.153 and 96.3979 and 125.341 | DMSO-normalized antiproliferation [2, 21]: 116.243 and 134.344 and 103.587 and 114.006 | DMSO-normalized antiproliferation [2, 22]: 75.2314 and 130.564 and 98.3202 and 135.021 | DMSO-normalized antiproliferation [2, 23]: 119.764 and 98.922 and 106.747 and 99.1636 | DMSO-normalized antiproliferation [2, 24]: 97.9582 and 111.563 and 110.426 and 109.944 | DMSO-normalized antiproliferation [3, 15]: 78.2662 and 80.6112 and 107.636 and 101.511 | DMSO-normalized antiproliferation [3, 16]: 115.881 and 119.912 and 109.909 and 110.138 | DMSO-normalized antiproliferation [3, 17]: 134.032 and 111.738 and 124.289 and 133.898 | DMSO-normalized antiproliferation [3, 18]: 111.46 and 97.6141 and 114.554 and 105.672 | DMSO-normalized antiproliferation [3, 19]: 122.388 and 133.597 and 106.246 and 144.762 | DMSO-normalized antiproliferation [3, 20]: 120.684 and 101.999 and 116.106 and 132.987 | DMSO-normalized antiproliferation [3, 21]: 123.405 and 123.822 and 121.356 and 113.012 | DMSO-normalized antiproliferation [3, 22]: 108.263 and 109.792 and 100.309 and 162.971 | DMSO-normalized antiproliferation [3, 23]: 109.842 and 96.251 and 145.82 and 104.761 | DMSO-normalized antiproliferation [3, 24]: 93.2647 and 77.5801 and 110.815 and 107.241 | DMSO-normalized antiproliferation [4, 15]: 72.8225 and 72.1303 and 101.197 and 90.2175 | DMSO-normalized antiproliferation [4, 16]: 131.635 and 91.018 and 75.6842 and 106.809 | DMSO-normalized antiproliferation [4, 17]: 122.78 and 97.8706 and 155.447 and 120.938 | DMSO-normalized antiproliferation [4, 18]: 130.888 and 102.417 and 116.74 and 117.366 | DMSO-normalized antiproliferation [4, 19]: 130.608 and 108.743 and 109.209 and 155.426 | DMSO-normalized antiproliferation [4, 20]: 126.2 and 112.564 and 135.746 and 163.91 | DMSO-normalized antiproliferation [4, 21]: 114.853 and 118.921 and 108.594 and 114.639 | DMSO-normalized antiproliferation [4, 22]: 149.935 and 111.753 and 119.231 and 88.5759 | DMSO-normalized antiproliferation [4, 23]: 130.478 and 106.921 and 102.092 and 104.28 | DMSO-normalized antiproliferation [4, 24]: 146.921 and 153.043 and 111.382 and 113.309
